Key:
barley [1] = assay: Test B preemergence/postemergence greenhouse plant response rating 0 to 10; format: in vivo, Hordeum vulgare; settings: 0 to 10 scale
Procedure, shortened: (§1)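 Test chemicals were sprayed onto freshly planted seed and, concurrently, onto young plants between the one and four leaf stage. After a twelve- to sixteen-day greenhouse period, each species was visually compared with untreated controls.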

bedstraw = assay: as above; format: in vivo, Galium aparine; settings: 0 to 10 scale
Procedure, shortened: as §1

chickweed [2] = assay: as above; format: in vivo, Stellaria media; settings: 0 to 10 scale
Procedure, shortened: as §1

cocklebur = assay: as above; format: in vivo, Xanthium pensylvanicum; settings: 0 to 10 scale
Procedure, shortened: as §1

morningglory = assay: as above; format: in vivo, Ipomoea hederacea; settings: 0 to 10 scale
Procedure, shortened: as §1

sorghum = assay: as above; format: in vivo, Sorghum bicolor; settings: 0 to 10 scale
Procedure, shortened: as §1

soybean [3] = assay: as above; format: in vivo, Glycine max; settings: 0 to 10 scale
Procedure, shortened: as §1

sugar beet = assay: as above; format: in vivo, Beta vulgaris; settings: 0 to 10 scale
Procedure, shortened: as §1

velvetleaf = assay: as above; format: in vivo, Abutilon theophrasti; settings: 0 to 10 scale
Procedure, shortened: as §1

wild buckwheat = assay: as above; format: in vivo, Polygonum convolvulus; settings: 0 to 10 scale
Procedure, shortened: as §1

barley [4] = assay: Test C preemergence/postemergence greenhouse plant response rating 0 to 100; format: in vivo, Hordeum vulgare; settings: POSTEMERGENCE; for Plant response rating Barley Igri: 0 to 100 scale
Procedure, shortened: (§2)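 Compounds in non-phytotoxic solvent went onto sandy loam before emergence (seeded one day earlier) or onto plants at the one-to-four leaf stage. Duck salad was treated via flood water (~2.5 cm, maintained) over silt loam.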

blackgrass = assay: as above; format: in vivo, Alopecurus myosuroides; settings: POSTEMERGENCE; for Plant response rating, Blackgrass: 0 to 100 scale
Procedure, shortened: as §2

chickweed [5] = assay: as above; format: in vivo, Stellaria media; settings: POSTEMERGENCE; for Plant response rating, Chickweed: 0 to 100 scale
Procedure, shortened: as §2

pigweed = assay: as above; format: in vivo, Amaranthusretroflexus; settings: POSTEMERGENCE; for Plant response rating Pigweed: 0 to 100 scale
Procedure, shortened: as §2

rape = assay: as above; format: in vivo, Brassica napus; settings: POSTEMERGENCE; for Plant response rating, Rape: 0 to 100 scale
Procedure, shortened: as §2

ryegrass = assay: as above; format: in vivo, Lolium multiflorum; settings: POSTEMERGENCE; for Plant response rating Ryegrass: 0 to 100 scale
Procedure, shortened: as §2

soybean [6] = assay: as above; format: in vivo, Glycine max; settings: POSTEMERGENCE; for Plant response rating, Soybean: 0 to 100 scale
Procedure, shortened: as §2

umbrella sedge = assay: Test C flood test plant response rating 0 to 100; format: in vivo, Cyperus difformis; settings: for Plant response rating Umbrella sedge: flood test species listed under POSTEMERGENCE, 0 to 100 scale
Procedure, shortened: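 Compounds in non-phytotoxic solvent applied preemergence to sandy loam one day after planting, postemergence at the 1–4 leaf stage, or to ~2.5 cm floodwater over silt loam.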

CC(C)OC(=O)c1cc(-c2nn3c(c2Cl)CCCC3)c(F)cc1Cl [Compound 44]
Plant response rating, Barley (barley [1]; POSTEMERGENCE, Rate 50 g/ha): 4 | Plant response rating, Barley (barley [1]; POSTEMERGENCE, Rate 200 g/ha): 6 | Plant response rating, Barley (barley [1]; PREEMERGENCE, Rate 50 g/ha): 1 | Plant response rating, Barley (barley [1]; Rate 200 g/ha, PREEMERGENCE): 2 | Plant response rating, Bedstraw (bedstraw; POSTEMERGENCE, Rate 50 g/ha): 9 | Plant response rating, Bedstraw (bedstraw; POSTEMERGENCE, Rate 200 g/ha): 9 | Plant response rating, Bedstraw (bedstraw; PREEMERGENCE, Rate 50 g/ha): 8 | Plant response rating, Bedstraw (bedstraw; Rate 200 g/ha, PREEMERGENCE): 10 | Plant response rating, Chickweed (chickweed [2]; POSTEMERGENCE, Rate 200 g/ha): 10 | Plant response rating, Chickweed (chickweed [2]; PREEMERGENCE, Rate 50 g/ha): 9 | Plant response rating, Chickweed (chickweed [2]; Rate 200 g/ha, PREEMERGENCE): 9 | Plant response rating, Cocklebur (cocklebur; POSTEMERGENCE, Rate 50 g/ha): 9 | Plant response rating, Cocklebur (cocklebur; POSTEMERGENCE, Rate 200 g/ha): 10 | Plant response rating, Cocklebur (cocklebur; PREEMERGENCE, Rate 50 g/ha): 6 | Plant response rating, Cocklebur (cocklebur; Rate 200 g/ha, PREEMERGENCE): 9 | Plant response rating, Morningglory (morningglory; POSTEMERGENCE, Rate 50 g/ha): 9 | Plant response rating, Morningglory (morningglory; PREEMERGENCE, Rate 50 g/ha): 7 | Plant response rating, Morningglory (morningglory; Rate 200 g/ha, POSTEMERGENCE): 10 | Plant response rating, Morningglory (morningglory; Rate 200 g/ha, PREEMERGENCE): 10 | Plant response rating, Sorghum (sorghum; POSTEMERGENCE, Rate 50 g/ha): 4 | Plant response rating, Sorghum (sorghum; PREEMERGENCE, Rate 50 g/ha): 1 | Plant response rating, Sorghum (sorghum; Rate 200 g/ha, POSTEMERGENCE): 5 | Plant response rating, Sorghum (sorghum; Rate 200 g/ha, PREEMERGENCE): 2 | Plant response rating, Soybean (soybean [3]; POSTEMERGENCE, Rate 50 g/ha): 8 | Plant response rating, Soybean (soybean [3]; PREEMERGENCE, Rate 50 g/ha): 0 | Plant response rating, Soybean (soybean [3]; Rate 200 g/ha, POSTEMERGENCE): 8 | Plant response rating, Soybean (soybean [3]; Rate 200 g/ha, PREEMERGENCE): 3 | Plant response rating, Sugar beet (sugar beet; POSTEMERGENCE, Rate 50 g/ha): 10 | Plant response rating, Sugar beet (sugar beet; PREEMERGENCE, Rate 50 g/ha): 10 | Plant response rating, Sugar beet (sugar beet; Rate 200 g/ha, POSTEMERGENCE): 10 | Plant response rating, Sugar beet (sugar beet; Rate 200 g/ha, PREEMERGENCE): 10 | Plant response rating, Velvetleaf (velvetleaf; POSTEMERGENCE, Rate 50 g/ha): 9 | Plant response rating, Velvetleaf (velvetleaf; PREEMERGENCE, Rate 50 g/ha): 4 | Plant response rating, Velvetleaf (velvetleaf; Rate 200 g/ha, POSTEMERGENCE): 10 | Plant response rating, Velvetleaf (velvetleaf; Rate 200 g/ha, PREEMERGENCE): 8 | Plant response rating, Wild buckwheat (wild buckwheat; POSTEMERGENCE, Rate 50 g/ha): 10 | Plant response rating, Wild buckwheat (wild buckwheat; PREEMERGENCE, Rate 50 g/ha): 9 | Plant response rating, Wild buckwheat (wild buckwheat; Rate 200 g/ha, POSTEMERGENCE): 10 | Plant response rating, Wild buckwheat (wild buckwheat; Rate 200 g/ha, PREEMERGENCE): 9 | Plant response rating Barley Igri (barley [4]; 62 g/ha): 40 | Plant response rating Barley Igri (barley [4]; 250 g/ha): 60 | Plant response rating (0 to 100), Barley Igri (barley [4]; Rate 4 g/ha): 10 | Plant response rating (0 to 100), Barley Igri (barley [4]; Rate 16 g/ha): 30 | Plant response rating, Blackgrass (blackgrass; 62 g/ha): 60 | Plant response rating, Blackgrass (blackgrass; 250 g/ha): 80 | Plant response rating (0 to 100), Blackgrass (blackgrass; Rate 4 g/ha): 30 | Plant response rating (0 to 100), Blackgrass (blackgrass; Rate 16 g/ha): 40 | Plant response rating, Chickweed (chickweed [5]; 62 g/ha): 95 | Plant response rating, Chickweed (chickweed [5]; 250 g/ha): 100 | Plant response rating (0 to 100), Chickweed (chickweed [5]; Rate 4 g/ha): 30 | Plant response rating (0 to 100), Chickweed (chickweed [5]; Rate 16 g/ha): 80 | Plant response rating Pigweed (pigweed; 62 g/ha): 100 | Plant response rating Pigweed (pigweed; 250 g/ha): 100 | Plant response rating (0 to 100), Pigweed (pigweed; Rate 4 g/ha): 90 | Plant response rating (0 to 100), Pigweed (pigweed; Rate 16 g/ha): 100 | Plant response rating, Rape (rape; 62 g/ha): 100 | Plant response rating, Rape (rape; 250 g/ha): 100 | Plant response rating (0 to 100), Rape (rape; Rate 4 g/ha): 40 | Plant response rating (0 to 100), Rape (rape; Rate 16 g/ha): 70 | Plant response rating Ryegrass (ryegrass; 62 g/ha): 50 | Plant response rating Ryegrass (ryegrass; 250 g/ha): 90 | Plant response rating (0 to 100), Ryegrass (ryegrass; Rate 4 g/ha): 20 | Plant response rating (0 to 100), Ryegrass (ryegrass; Rate 16 g/ha): 30 | Plant response rating, Soybean (soybean [6]; 62 g/ha): 50 | Plant response rating, Soybean (soybean [6]; 250 g/ha): 70 | Plant response rating (0 to 100), Soybean (soybean [6]; Rate 4 g/ha): 10 | Plant response rating (0 to 100), Soybean (soybean [6]; Rate 16 g/ha): 30 | Plant response rating (0 to 100), Umbrella sedge (umbrella sedge; POSTEMERGENCE section, flood test, Rate 4 g/ha): 30 | Plant response rating (0 to 100), Umbrella sedge (umbrella sedge; Rate 16 g/ha, under POSTEMERGENCE head (flood test species)): 60 | Plant response rating Umbrella sedge (umbrella sedge; 62 g/ha): 80 | Plant response rating Umbrella sedge (umbrella sedge; 250 g/ha): 100
